Experimental findings from US20240132479A1, “THERAPEUTIC COMPOUNDS AND USES THEREOF” (Board of Trustees of Michigan State University, priority 2021, published 2024) are described below.

Converted amounts (≈) assume the structure as drawn.

The subject of assay [1] is rifampin resistant (RIF:rpoBS450L) strain (ATCC #35838). Format: cell-based, Mycobacterium tuberculosis.
In assay [2] the test system is isoniazid resistant (INH: katGdel) strain (MS015). The assay can be described thus: microbe, parasite or virus in culture. Conditions: Mycobacterium tuberculosis, H37RV, read-out: MIC H37Rv (katG^del). The format is cell-based.
Assay [3] relates to moxifloxacin resistant (MOX: gyrD94K) strain (MOX3). Format: cell-based, Mycobacterium tuberculosis.

Consider `Cc1cc2nc(SCC(=O)N(C(C)C)C(C)C)[nH]c2cc1C` [Example 2, 2-[(5,6-dimethyl-1H-1,3-benzodiazol-2-yl)sulfanyl]-N,N-bis(propan-2-yl)acetamide], for which, in assay [1], the “MIC H37Rv (rpoB^S450L)” value is 0.25 µg/mL (≈ 0.783 µM). For the same compound, the MIC in assay [2] came to 0.5 µg/mL (≈ 1.57 µM). The “MIC H37Rv (gyrA^D94K)” value in assay [3] was 0.5 µg/mL (≈ 1.57 µM).
On to `CC(C)N(C(=O)CCc1nc2cc(Cl)c(Cl)cc2[nH]1)C(C)C` [Example 19], for which, in assay [1], the “MIC H37Rv (rpoB^S450L)” value is not above 0.125 µg/mL. In addition, the MIC in assay [2] was not above 0.125 µg/mL. For the same compound, the “MIC H37Rv (gyrA^D94K)” value in assay [3] was not above 0.125 µg/mL.
In the case of `Cc1cc2nc(CCC(=O)N(C(C)C)C(C)C)[nH]c2cc1C` [Example 21A], in assay [1], the “MIC H37Rv (rpoB^S450L)” value was 0.25 µg/mL (≈ 0.829 µM). Also, the MIC in assay [2] is not above 0.125 µg/mL. Further, the “MIC H37Rv (gyrA^D94K)” value in assay [3] was not above 0.125 µg/mL.
